# From patent US20160158377A1, “BCL-XL Inhibitory Compounds and Antibody Drug Conjugates Including the Same” (AbbVie Inc., priority 2014, published 2016)
# pKi: −log10 of the molar value. Like-named read-outs stand apart in the source and are kept apart here.
# Experiments:
# circulating platelets [1] = settings: mouse, in vivo
# circulating platelets [2] = assay: Number of circulating platelets in mice after single intraperitoneal injection; settings: for Time after injection at which thrombocytopenia was maximal: following injection of the compounds
# Bcl-xL = Bcl-xL (Homo sapiens, UniProt Q07817); assay: TR-FRET Bcl-xL binding assay (competition with probe F-Bak); settings: for Ki: in the presence of 1% human serum (HS), read-out: Bcl-xL Binding Ki (nM, 1% HS); for pKi: without human serum, read-out: Bcl-xL Binding Ki
# Bcl-xL, sequence (Q07817 whole entry): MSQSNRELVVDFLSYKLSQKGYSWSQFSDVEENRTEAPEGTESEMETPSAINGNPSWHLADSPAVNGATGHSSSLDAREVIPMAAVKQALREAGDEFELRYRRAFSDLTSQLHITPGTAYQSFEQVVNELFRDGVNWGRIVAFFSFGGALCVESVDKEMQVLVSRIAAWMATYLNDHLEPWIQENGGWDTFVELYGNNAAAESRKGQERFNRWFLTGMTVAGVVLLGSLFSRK
# Experimental: For the assay, test compounds were serially diluted in DMSO starting at 50 μM (2× starting concentration; 10% DMSO) and 10 μL transferred into a 384-well plate. 10 μL of a protein/probe/antibody mix was then added to each well at final concentrations listed below:
# The samples were then mixed on a shaker for 1 minute and incubated for an additional 2 hours at room temperature. For each assay plate, a probe/antibody and protein/antibody/probe mixture were included as a negative and a positive control, respectively. Fluorescence was measured on the Envision (Perkin Elmer) using a 340/35 nm excitation filter and 520/525 (F-Bak) and 495/510 nm (Tb-labeled anti-his antibody) emission filters. Dissociation constants (Ki) were determined using Wang's equation (Wang, 1995, FEBS Lett. 360:111-114). The TR-FRET assay can be performed in the presence of varying concentrations of human serum (HS) or fetal bovine serum (FBS). Compounds were tested both without HS and in the presence of 1% HS.
# [3] = test system: Molt-4 human acute lymphoblastic leukemia cells; assay: Molt-4 cell viability assay; format: cell-based; settings: 10% human serum, 48 hours, CellTiter-Glo, read-out: Molt-4 Viability EC50 (nM, 10% HS)
# Experimental: In one exemplary set of conditions, Molt-4 (ATCC, Manassas, Va.) human acute lymphoblastic leukemia cells were plated 12,500 cells per well in 384-well tissue culture plates (Corning, Corning, N.Y.) in a total volume of 25 μL tissue culture medium supplemented with 10% human serum (Sigma-Aldrich, St. Louis, Mo.) and treated with a 3-fold serial dilution of the compounds of interest from 10 μM to 0.0005 μM. Each concentration was tested in duplicate at least 3 separate times. The number of viable cells following 48 hours of compound treatment was determined using the CellTiter-Glo® Luminescent Cell Viability Assay according to the manufacturer's recommendations (Promega Corp., Madison, Wis.). Compounds were tested in the presence of 10% HS.
Structure (SMILES),Ki (Bcl-xL) [nM],EC50 [3] [nM],pKi (Bcl-xL),further results
"CC1(C)CCC(c2ccc(Cl)cc2)=C(CN2CCN(c3ccc(C(=O)NS(=O)(=O)c4ccc(N[C@H](CCN5CCOCC5)CSc5ccccc5)c(S(=O)(=O)C(F)(F)F)c4)cc3)CC2)C1 [ABT-263, Navitoclax]",,,,Time after injection at which thrombocytopenia was maximal (circulating platelets [1]): 6 h; Time to lowest count (circulating platelets [1]; 100 mg/kg): 6 h
Cc1c(-c2ccc(N3CCc4cccc(C(=O)Nc5nc6ccccc6s5)c4C3)nc2C(=O)O)cnn1CC12CC3CC(CC(C3)C1)C2 [Compound A-1331852],,,,Time to lowest count (circulating platelets [2]; dose 25 mg/kg): 6 h; Time after injection at which thrombocytopenia was maximal (circulating platelets [2]): 6 h
"CNCCOC12CC3(C)CC(C)(CC(Cn4ncc(-c5ccc(-c6cc7cccc(C(=O)Nc8nc9ccccc9s8)c7[nH]6)nc5C(=O)O)c4C)(C3)C1)C2 [Compound W3.27, 6-[7-(1,3-benzothiazol-2-ylcarbamoyl)-1H-indol-2-yl]-3-[1-({3,5-dimethyl-7-[2-(methylamino)ethoxy]tricyclo[3.3.1.1^3,7]dec-1-yl}methyl)-5-methyl-1H-pyrazol-4-yl]pyridine-2-carboxylic acid]",0.12,3.95,,
"Cc1c(-c2ccc(-c3cc4cccc(C(=O)Nc5nc6ccccc6s5)c4[nH]3)nc2C(=O)O)cnn1CC12CC3(C)CC(C)(C1)CC(OCCN)(C3)C2 [Compound W3.28, 3-(1-{[3-(2-aminoethoxy)-5,7-dimethyltricyclo[3.3.1.1^3,7]dec-1-yl]methyl}-5-methyl-1H-pyrazol-4-yl)-6-[7-(1,3-benzothiazol-2-ylcarbamoyl)-1H-indol-2-yl]pyridine-2-carboxylic acid]",0.17,8.38,> 11.00,
"CNCCOC12CC3(C)CC(C)(CC(Cn4ncc(-c5ccc(-c6[nH]c7c(C(=O)Nc8nc9ccccc9s8)cccc7c6C)nc5C(=O)O)c4C)(C3)C1)C2 [Compound W3.29, 6-[7-(1,3-benzothiazol-2-ylcarbamoyl)-3-methyl-1H-indol-2-yl]-3-[1-({3,5-dimethyl-7-[2-(methylamino)ethoxy]tricyclo[3.3.1.1^3,7]dec-1-yl}methyl)-5-methyl-1H-pyrazol-4-yl]pyridine-2-carboxylic acid]",0.09,185,> 11.00,
"Cc1c(-c2ccc(N3CCc4cccc(C(=O)Nc5nc6ccccc6s5)c4C3)nc2C(=O)O)cnn1CC12CC3(C)CC(C)(C1)CC(OCCNC1CCN(S(C)(=O)=O)CC1)(C3)C2 [Compound W3.30, 6-[8-(1,3-benzothiazol-2-ylcarbamoyl)-3,4-dihydroisoquinolin-2(1H)-yl]-3-(1-{[3,5-dimethyl-7-(2-{[1-(methylsulfonyl)piperidin-4-yl]amino}ethoxy)tricyclo[3.3.1.1^3,7]dec-1-yl]methyl}-5-methyl-1H-pyrazol-4-yl)pyridine-2-carboxylic acid]",0.891,16.3,10.96,
"Cc1c(-c2ccc(N3CCc4cccc(C(=O)Nc5nc6ccccc6s5)c4C3)nc2C(=O)O)cnn1CC12CC3(C)CC(C)(C1)CC(OCCNC1CN(S(C)(=O)=O)C1)(C3)C2 [Compound W3.31, 6-[8-(1,3-benzothiazol-2-ylcarbamoyl)-3,4-dihydroisoquinolin-2(1H)-yl]-3-(1-{[3,5-dimethyl-7-(2-{[1-(methylsulfonyl)azetidin-3-yl]amino}ethoxy)tricyclo[3.3.1.1^3,7]dec-1-yl]methyl}-5-methyl-1H-pyrazol-4-yl)pyridine-2-carboxylic acid]",0.684,14.4,10.92,
"Cc1c(-c2ccc(N3CCc4cccc(C(=O)Nc5nc6ccccc6s5)c4C3)nc2C(=O)O)cnn1CC12CC3(C)CC(C)(C1)CC(OCCNCCC(N)=O)(C3)C2 [Compound W3.32, 3-{1-[(3-{2-[(3-amino-3-oxopropyl)amino]ethoxy}-5,7-dimethyltricyclo[3.3.1.1^3,7]dec-1-yl)methyl]-5-methyl-1H-pyrazol-4-yl}-6-[8-(1,3-benzothiazol-2-ylcarbamoyl)-3,4-dihydroisoquinolin-2(1H)-yl]pyridine-2-carboxylic acid]",0.365,108,> 11.00,
"CNCCOC12CC3(C)CC(C)(CC(Cn4ncc(-c5ccc(-c6ccc7[nH]nc(C(=O)Nc8nc9ccccc9s8)c7c6)nc5C(=O)O)c4C)(C3)C1)C2 [Compound W3.33, 6-[3-(1,3-benzothiazol-2-ylcarbamoyl)-1H-indazol-5-yl]-3-[1-({3,5-dimethyl-7-[2-(methylamino)ethoxy]tricyclo[3.3.1.1^3,7]dec-1-yl}methyl)-5-methyl-1H-pyrazol-4-yl]pyridine-2-carboxylic acid]",0.319,422,10.36,
"CNCCOC12CC3(C)CC(C)(CC(Cn4ncc(-c5ccc(-c6ccc7[nH]cc(C(=O)Nc8nc9ccccc9s8)c7c6)nc5C(=O)O)c4C)(C3)C1)C2 [Compound W3.34, 6-[3-(1,3-benzothiazol-2-ylcarbamoyl)-1H-indol-5-yl]-3-[1-({3,5-dimethyl-7-[2-(methylamino)ethoxy]tricyclo[3.3.1.1^3,7]dec-1-yl}methyl)-5-methyl-1H-pyrazol-4-yl]pyridine-2-carboxylic acid]",0.27,187,10.39,
"CNCCOC12CC3(C)CC(C)(CC(Cn4ncc(-c5ccc(-c6cnc7[nH]cc(C(=O)Nc8nc9ccccc9s8)c7c6)nc5C(=O)O)c4C)(C3)C1)C2 [Compound W3.35, 6-[3-(1,3-benzothiazol-2-ylcarbamoyl)-1H-pyrrolo[2,3-b]pyridin-5-yl]-3-[1-({3,5-dimethyl-7-[2-(methylamino)ethoxy]tricyclo[3.3.1.1^3,7]dec-1-yl}methyl)-5-methyl-1H-pyrazol-4-yl]pyridine-2-carboxylic acid]",0.16,658,10.66,
"Cc1c(-c2ccc(-c3ccc4cccc(C(=O)Nc5nc6ccccc6s5)c4c3)nc2C(=O)O)cnn1CC12CC3(C)CC(C)(C1)CC(OCCNCCCO)(C3)C2 [Compound W3.37, 6-[8-(1,3-benzothiazol-2-ylcarbamoyl)naphthalen-2-yl]-3-{1-[(3-{2-[(3-hydroxypropyl)amino]ethoxy}-5,7-dimethyltricyclo[3.3.1.1^3,7]dec-1-yl)methyl]-5-methyl-1H-pyrazol-4-yl}pyridine-2-carboxylic acid]",0.58,10.8,10.52,
"CNC(=O)CCNCCOC12CC3(C)CC(C)(CC(Cn4ncc(-c5ccc(N6CCc7cccc(C(=O)Nc8nc9ccccc9s8)c7C6)nc5C(=O)O)c4C)(C3)C1)C2 [Compound W3.39, 6-[8-(1,3-benzothiazol-2-ylcarbamoyl)-3,4-dihydroisoquinolin-2(1H)-yl]-3-(1-{[3,5-dimethyl-7-(2-{[3-(methylamino)-3-oxopropyl]amino}ethoxy)tricyclo[3.3.1.1^3,7]dec-1-yl]methyl}-5-methyl-1H-pyrazol-4-yl)pyridine-2-carboxylic acid]",0.44,37.7,10.82,
"CNCCOC12CC3(C)CC(C)(CC(Cn4ncc(-c5ccc(N6CCc7cccc(C(=O)Nc8nc9ccccc9s8)c7C6)nc5C(=O)O)c4C)(C3)C1)C2 [Example 2.32.24, 6-[8-(1,3-benzothiazol-2-ylcarbamoyl)-3,4-dihydroisoquinolin-2(1H)-yl]-3-[1-({3,5-dimethyl-7-[2-(methylamino)ethoxy]tricyclo[3.3.1.1^3,7]dec-1-yl}methyl)-5-methyl-1H-pyrazol-4-yl]pyridine-2-carboxylic acid]",,,,"Platelet number after dosing (circulating platelets [2]; dose 0.61 mg/kg): 6*10^3 /mm^3; Time to lowest count (circulating platelets [2]; dose 0.61 mg/kg): 6 h; Decrease of the platelet number (circulating platelets [2]; dose 0.61 mg/kg, from normal count of approximately 6*10^5/mm^3): 100 fold; Time after injection at which thrombocytopenia was maximal (circulating platelets [2]): 6 h"
